Columns and labels:
[1] = system: red cells; format: cell-based
Text: The trial results by Dr Allon were examined by researchers in a group of experiments at the Naval Blood Laboratory and Boston University Medical School. […] However, the researchers were not able to determine exactly how their results were relevant to the findings in the University of Alabama clinical trial.

[2] = Long term stability tests of taurolidine in solution; format: physicochemical; conditions: citric acid and sodium citrate in combination, versus solution prepared with PVP
Text: In addition, citric acid is a known antioxidant. […] The composition employed in the practice of the present invention preferably also contains a pharmacologically acceptable carrier solution, such as, water, Ringer's solution, or saline.

[3] = Biocidal effectiveness of taurolidine solution with citrate/citric acid pH adjustment; conditions: citrates and citric acid, pH of end solution in the vicinity of 5.2 to 6.5
Text: The concentration of taurolidine in such solutions is preferably in the range of from about 0.4 to about 5% by weight, depending upon the solubility of the compound. […] The approach creates a buffer system of citric acid/sodium citrate by adjustment of pH using sodium hydroxide. This buffer system also resists changes in the pH due to the oxidation of formaldehyde to formic acid.

Compound | changes to blood in contact with solution [1] | precipitation of solid taurolidine and reaction products from solution [2] | biocidal effectiveness [3]
O=S1(=O)CCN(CN2CCS(=O)(=O)NC2)CN1 [taurolidine] | morphological changes to red cells | prevents or severely slows down | substantially increases
heparin | did not happen | – | –

Source: patent publication US20210236698A1, “ANTIMICROBIAL LOCKING SOLUTIONS COMPRISING TAURINAMIDE DERIVATIVES AND BIOLOGICALLY ACCEPTABLE SALTS AND ACIDS, WITH THE ADDITION OF SMALL CONCENTRATIONS OF HEPARIN” (ND Partners, LLC, priority 2004, published 2021)
